Results as given in patent publication US20230322761A1, “DEGRADATION OF BRUTON'S TYROSINE KINASE (BTK) BY CONJUGATION OF BTK INHIBITORS WITH E3 LIGASE LIGAND AND METHODS OF USE” (BEIGENE, LTD., priority 2020, published 2023).
Blank lines part the entries; values can stand above or below the compound they belong to.

Target: T1, BTK (Homo sapiens, UniProt Q06187)
T1 construct: endogenous in cells; host or cells: TMD-8 cells
Assay: BTK degradation in TMD-8 cells, HTRF assay after 6 h treatment
Assay type: cell-based
Conditions: IC50 (DC50) of BTK degradation
In short: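 Remaining BTK was quantified by HTRF in lysates of TMD-8 cells after 6 h exposure to an 8-point, 6-fold compound series (500× stocks in DMSO starting at 1 mM; 0.2% DMSO). Lysis 30 min, antibodies overnight at room temperature, ratio read at 665/620 nm; DC50 fitted with a four-parameter logistic equation.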

T1 sequence (Q06187 whole entry): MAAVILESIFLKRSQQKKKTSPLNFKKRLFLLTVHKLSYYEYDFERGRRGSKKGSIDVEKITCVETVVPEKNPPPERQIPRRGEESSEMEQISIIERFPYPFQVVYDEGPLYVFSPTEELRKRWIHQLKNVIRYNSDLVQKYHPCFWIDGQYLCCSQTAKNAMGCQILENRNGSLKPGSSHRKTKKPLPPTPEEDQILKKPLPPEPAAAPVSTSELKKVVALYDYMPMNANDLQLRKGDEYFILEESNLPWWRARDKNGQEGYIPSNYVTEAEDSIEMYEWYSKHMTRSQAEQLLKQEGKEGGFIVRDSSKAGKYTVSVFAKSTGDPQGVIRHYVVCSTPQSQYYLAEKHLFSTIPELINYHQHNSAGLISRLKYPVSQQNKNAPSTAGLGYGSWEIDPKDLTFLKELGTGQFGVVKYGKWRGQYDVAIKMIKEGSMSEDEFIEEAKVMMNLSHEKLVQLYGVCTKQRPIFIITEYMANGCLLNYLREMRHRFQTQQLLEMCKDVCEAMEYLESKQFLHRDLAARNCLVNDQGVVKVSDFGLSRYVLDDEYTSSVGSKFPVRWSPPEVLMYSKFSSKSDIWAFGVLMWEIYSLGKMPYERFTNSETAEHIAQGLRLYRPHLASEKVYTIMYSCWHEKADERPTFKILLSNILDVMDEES

Structure (SMILES): Cc1cc(-c2n[nH]c3ncc(-c4ccc(N5CCN(C6CC(c7ccc(C8CCC(=O)NC8=O)cc7)C6)CC5)cc4)cc23)ccc1[C@@H](C)NC(=O)c1noc(C(C)(C)C)n1 (stereo partly drawn) [Example 214, 5-(tert-butyl)-N-((1R)-1-(4-(5-(4-(4-((1s,3s)-3-(4-(2,6-dioxopiperidin-3-yl)phenyl)cyclobutyl)piperazin-1-yl)phenyl)-1H-pyrazolo[3,4-b]pyridin-3-yl)-2-methylphenyl)ethyl)-1,2,4-oxadiazole-3-carboxamide]
DC50: 1.3 nM

Structure (SMILES): Cc1cc(-c2n[nH]c3ncc(-c4ccc(N5CCN(CC6CCN(c7ccc(N8CC(=O)NC8=O)cc7)CC6)CC5)cc4)cc23)ccc1[C@@H](C)NC(=O)c1nc(C(C)(C)C)no1 [Example 218, (R)-3-(tert-butyl)-N-(1-(4-(5-(4-(4-((1-(4-(2,4-dioxoimidazolidin-1-yl)phenyl)piperidin-4-yl)methyl)piperazin-1-yl)phenyl)-1H-pyrazolo[3,4-b]pyridin-3-yl)-2-methylphenyl)ethyl)-1,2,4-oxadiazole-5-carboxamide]
DC50: 19 nM

Structure (SMILES): Cc1cc(-c2n[nH]c3ncc(-c4ccc(N5CCN(C6CC(c7ccc([C@H]8CCC(=O)NC8=O)cc7)C6)CC5)cc4)cc23)ccc1[C@@H](C)NC(=O)c1noc(C(C)(C)C)n1 (stereo partly drawn) [Example 223, 5-(tert-butyl)-N—((R)-1-(4-(5-(4-(4-((1S,3r)-3-(4-((S)-2,6-dioxopiperidin-3-yl)phenyl)cyclobutyl)piperazin-1-yl)phenyl)-1H-pyrazolo[3,4-b]pyridin-3-yl)-2-methylphenyl)ethyl)-1,2,4-oxadiazole-3-carboxamide]
DC50: 1.56 nM

Structure (SMILES): Cc1cc(-c2n[nH]c3ncc(-c4ccc(N5CCN(CC6CCN(c7ccc(N8CCC(=O)NC8=O)cc7)CC6)CC5)cc4)cc23)ccc1[C@@H](C)NC(=O)c1nnc(C(C)(C)C)o1 [Example 225, (R)-5-(tert-butyl)-N-(1-(4-(5-(4-(4-((1-(4-(2,4-dioxotetrahydropyrimidin-1(2H)-yl)phenyl)piperidin-4-yl)methyl)piperazin-1-yl)phenyl)-1H-pyrazolo[3,4-b]pyridin-3-yl)-2-methylphenyl)ethyl)-1,3,4-oxadiazole-2-carboxamide]
DC50: 9.45 nM

Structure (SMILES): Cc1cc(-c2n[nH]c3ncc(-c4ccc(C5CCN(CCc6ccc(C7CCC(=O)NC7=O)cc6)CC5)cc4)cc23)ccc1[C@@H](C)NC(=O)c1noc(C(C)(C)C)n1 (stereo partly drawn) [Example 227, 5-(tert-butyl)-N-((1R)-1-(4-(5-(4-(1-(4-(2,6-dioxopiperidin-3-yl)phenethyl)piperidin-4-yl)phenyl)-1H-pyrazolo[3,4-b]pyridin-3-yl)-2-methylphenyl)ethyl)-1,2,4-oxadiazole-3-carboxamide]
DC50: 3.93 nM

Structure (SMILES): Cc1cc(-c2n[nH]c3ncc(-c4ccc(N5CCN(CC6CCN(c7ccc(N8CCC(=O)NC8=O)c(C)c7)CC6)CC5)nc4)cc23)ccc1CNC(=O)c1nc(C(C)(C)C)no1 [Example 228, 3-(tert-butyl)-N-(4-(5-(6-(4-((1-(4-(2,4-dioxotetrahydropyrimidin-1(2H)-yl)-3-methylphenyl)piperidin-4-yl)methyl)piperazin-1-yl)pyridin-3-yl)-1H-pyrazolo[3,4-b]pyridin-3-yl)-2-methylbenzyl)-1,2,4-oxadiazole-5-carboxamide]
DC50: 2.02 nM

Structure (SMILES): Cc1cc(-c2n[nH]c3ncc(-c4ccc(N5CCN(CCc6ccc(C7CCC(=O)NC7=O)cn6)CC5)cc4)cc23)ccc1CNC(=O)c1noc(C(C)(C)C)n1 (stereo not shown) [Example 229, 5-(tert-butyl)-N-(4-(5-(4-(4-(2-(5-(2,6-dioxopiperidin-3-yl)pyridin-2-yl)ethyl)piperazin-1-yl)phenyl)-1H-pyrazolo[3,4-b]pyridin-3-yl)-2-methylbenzyl)-1,2,4-oxadiazole-3-carboxamide]
DC50: 0.427 nM

The remaining compounds from weak to strong by DC50, led by results:

DC50: 1960 nM
Structure (SMILES): Cc1cc(-c2n[nH]c3ncc(-c4ccc(N5CCN(CCc6ccc(N7CC(=O)NC7=O)cc6)CC5)cc4)cc23)ccc1[C@@H](C)NC(=O)c1nc(C(C)(C)C)no1 [Example 217, (R)-3-(tert-butyl)-N-(1-(4-(5-(4-(4-(4-(2,4-dioxoimidazolidin-1-yl)phenethyl)piperazin-1-yl)phenyl)-1H-pyrazolo[3,4-b]pyridin-3-yl)-2-methylphenyl)ethyl)-1,2,4-oxadiazole-5-carboxamide]

DC50: 16.1 nM
Structure (SMILES): Cc1cc(-c2n[nH]c3ncc(-c4ccc(C5CCN(CC6CCN(c7ccc(N8CCC(=O)NC8=O)cc7)CC6)CC5)cc4)cc23)c(F)cc1CNC(=O)c1noc(C(C)(C)C)n1 [Example 222, 5-(tert-butyl)-N-(4-(5-(4-(1-((1-(4-(2,4-dioxotetrahydropyrimidin-1(2H)-yl)phenyl)piperidin-4-yl)methyl)piperidin-4-yl)phenyl)-1H-pyrazolo[3,4-b]pyridin-3-yl)-5-fluoro-2-methylbenzyl)-1,2,4-oxadiazole-3-carboxamide]

DC50: 11.8 nM
Structure (SMILES): Cc1cc(-c2n[nH]c3ncc(-c4ccc(N5CCN(Cc6ccc(C7CCC(=O)NC7=O)c(F)c6)CC5)cc4)cc23)ccc1[C@@H](C)NC(=O)c1nc(C(C)(C)C)no1 (stereo partly drawn) [Example 215, 3-(tert-butyl)-N-((1R)-1-(4-(5-(4-(4-(4-(2,6-dioxopiperidin-3-yl)-3-fluorobenzyl)piperazin-1-yl)phenyl)-1H-pyrazolo[3,4-b]pyridin-3-yl)-2-methylphenyl)ethyl)-1,2,4-oxadiazole-5-carboxamide]

DC50: 10.5 nM
Structure (SMILES): Cc1cc(-c2n[nH]c3ncc(-c4ccc(N5CCN(C6CCC(c7ccc(C8CCC(=O)NC8=O)c(F)c7)C6)CC5)cc4)cc23)ccc1[C@@H](C)NC(=O)c1nc(C(C)(C)C)no1 (stereo partly drawn) [Example 216, 3-(tert-butyl)-N-((1R)-1-(4-(5-(4-(4-(3-(4-(2,6-dioxopiperidin-3-yl)-3-fluorophenyl)cyclopentyl)piperazin-1-yl)phenyl)-1H-pyrazolo[3,4-b]pyridin-3-yl)-2-methylphenyl)ethyl)-1,2,4-oxadiazole-5-carboxamide]

DC50: 6.16 nM
Structure (SMILES): Cc1cc(-c2n[nH]c3ncc(-c4ccc(N5CCN(C6CC(c7ccc([C@H]8CCC(=O)NC8=O)cc7)C6)CC5)cc4)cc23)ccc1[C@@H](C)NC(=O)c1noc(C(C)(C)C)n1 (stereo partly drawn) [Example 224, 5-(tert-butyl)-N—((R)-1-(4-(5-(4-(4-((1S,3r)-3-(4-((R)-2,6-dioxopiperidin-3-yl)phenyl)cyclobutyl)piperazin-1-yl)phenyl)-1H-pyrazolo[3,4-b]pyridin-3-yl)-2-methylphenyl)ethyl)-1,2,4-oxadiazole-3-carboxamide]

DC50: 3.85 nM
Structure (SMILES): Cc1cc(-c2n[nH]c3ncc(-c4ccc(C5CCN(CC6CCN(c7ccc(N8CCC(=O)NC8=O)cc7)CC6)CC5)cc4)cc23)c(F)cc1CNC(=O)c1nc(C(C)(C)C)no1 [Example 220, 3-(tert-butyl)-N-(4-(5-(4-(1-((1-(4-(2,4-dioxotetrahydropyrimidin-1(2H)-yl)phenyl)piperidin-4-yl)methyl)piperidin-4-yl)phenyl)-1H-pyrazolo[3,4-b]pyridin-3-yl)-5-fluoro-2-methylbenzyl)-1,2,4-oxadiazole-5-carboxamide]

DC50: 3.04 nM
Structure (SMILES): Cc1cc(-c2n[nH]c3ncc(-c4ccc(N5CCN(CCOc6cccc7c6C(=O)N([C@@H]6CCC(=O)NC6=O)C7)CC5)cc4)cc23)ccc1[C@@H](C)NC(=O)c1nc(C(C)(C)C)no1 [Example 226, 3-(tert-butyl)-N—((R)-1-(4-(5-(4-(4-(2-((2-((R)-2,6-dioxopiperidin-3-yl)-3-oxoisoindolin-4-yl)oxy)ethyl)piperazin-1-yl)phenyl)-1H-pyrazolo[3,4-b]pyridin-3-yl)-2-methylphenyl)ethyl)-1,2,4-oxadiazole-5-carboxamide]

DC50: 2.23 nM
Structure (SMILES): Cc1c(CNC(=O)c2nc(C(C)(C)C)no2)ccc(-c2n[nH]c3ncc(-c4ccc(C5CCN(CC6CCN(c7ccc(N8CCC(=O)NC8=O)cc7)CC6)CC5)cc4)cc23)c1F [Example 219, 3-(tert-butyl)-N-(4-(5-(4-(1-((1-(4-(2,4-dioxotetrahydropyrimidin-1(2H)-yl)phenyl)piperidin-4-yl)methyl)piperidin-4-yl)phenyl)-1H-pyrazolo[3,4-b]pyridin-3-yl)-3-fluoro-2-methylbenzyl)-1,2,4-oxadiazole-5-carboxamide]

DC50: 1.12 nM
Structure (SMILES): Cc1c(CNC(=O)c2noc(C(C)(C)C)n2)ccc(-c2n[nH]c3ncc(-c4ccc(C5CCN(CC6CCN(c7ccc(N8CCC(=O)NC8=O)cc7)CC6)CC5)cc4)cc23)c1F [Example 221, 5-(tert-butyl)-N-(4-(5-(4-(1-((1-(4-(2,4-dioxotetrahydropyrimidin-1(2H)-yl)phenyl)piperidin-4-yl)methyl)piperidin-4-yl)phenyl)-1H-pyrazolo[3,4-b]pyridin-3-yl)-3-fluoro-2-methylbenzyl)-1,2,4-oxadiazole-3-carboxamide]
